Specific activity data for 1 compound are collected here from PMC11445358 (Applied Microbiology and Biotechnology, 2024).

For the assay, the target named is T1, microbial transglutaminase (MTG) (Streptomyces mobaraensis, UniProt P81453).
T1 sequence (P81453 77-407): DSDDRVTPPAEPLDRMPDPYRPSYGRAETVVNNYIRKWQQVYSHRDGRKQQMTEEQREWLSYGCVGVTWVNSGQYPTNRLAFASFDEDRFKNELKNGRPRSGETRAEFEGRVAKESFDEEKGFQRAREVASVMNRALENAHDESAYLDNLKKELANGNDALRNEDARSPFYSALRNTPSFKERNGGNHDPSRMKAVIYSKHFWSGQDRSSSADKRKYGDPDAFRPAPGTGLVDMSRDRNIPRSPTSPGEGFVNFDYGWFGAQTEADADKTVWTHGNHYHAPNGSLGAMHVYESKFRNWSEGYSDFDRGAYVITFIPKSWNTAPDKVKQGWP
The assay is described as follows: colorimetric hydroxamate assay, absorbance at […] nm. It is filed as biochemical. The conditions noted are these: 37 °C, 10 min; hydroxamate formation.

Residues, ends and D or L forms follow the SMILES beside them. *: point of attachment. Cbz = O=C(OCc1ccccc1)*

Take `NC(=O)CC[C@H](NC(=O)OCc1ccccc1)C(=O)NCC(=O)O` [Z-QG, N-carbobenzoxy-L-glutaminylglycine] (Cbz-Gln-Gly-OH): the specific activity entry was “specific MTG activity was measured with a colorimetric hydroxamate procedure using N-carbobenzoxy-L-glutaminylglycine (Z-QG)”.
